Values of other authors, collected in patent publication US20220054404A1, “SUBCUTANEOUS ADMINISTRATION OF NANOPARTICLES COMPRISING AN MTOR INHIBITOR AND ALBUMIN FOR TREATMENT OF DISEASES” (Abraxis BioScience, LLC, priority 2019, published 2022).

Tested on: ABCB1/ABCG2

COc1ccc(COc2cc3oc(=O)c4cc(C(C)O)ccc4c3cc2OC)cc1 (stereo not shown) [Palomid 529]
Affinity for ABCB1/ABCG2: lacks affinity for ABCB1/ABCG2
